Measured values taken from ChEMBL document CHEMBL4304741, “Modification and Biological Evaluation of a Series of 1,5-Diaryl-1,2,4-triazole Compounds as Novel Agents against Pancreatic Cancer Metastasis through Targeting Myoferlin” (J Med Chem, 2019).
pIC50: −log10 of the molar value. Active and inactive are the calls of the source. No cut-off for these calls is given here.

Columns and labels:
PANC-1 [1] = assay: Antimigratory activity against human PANC1 cells measured after 18 hrs in presence of mitomycin C using crystal violet staining by inverted microscopy-based transwell assay; assay type: functional, cell-based; details: PANC-1, 18 h
PANC-1 [2] = assay: Antiinvasive activity against human PANC1 cells measured after 18 hrs in presence of mitomycin C using crystal violet staining by inverted microscopy-based matrigel coated transwell assay; assay type: functional, cell-based; details: PANC-1, 18 h
Myoferlin [3] = target: T1, Myoferlin (Homo sapiens, UniProt Q9NZM1); assay: Binding affinity to recombinant human GST-tagged MYOF C2 domain (3445 to 3912 residues) expressed in Escherichia coli BL21 (DE3) at 0.03125 to 0.5 uM by surface plasmon resonance analysis
[4] = Toxicity in Balb/c nude mouse xenografted with PANC1 cells assessed as pathological changes in spleen at 25 mg/kg/day, ip by H and E staining-based microscopic analysis; assay type: organism-based; details: in vivo
[5] = Toxicity in Balb/c nude mouse xenografted with PANC1 cells assessed as pathological changes in liver at 25 mg/kg/day, ip by H and E staining-based microscopic analysis; assay type: organism-based; details: in vivo
[6] = Toxicity in Balb/c nude mouse xenografted with PANC1 cells assessed as pathological changes in kidney at 25 mg/kg/day, ip by H and E staining-based microscopic analysis; assay type: organism-based; details: in vivo
PANC-1 [7] = assay: Antimetastatic activity against human PANC1 cells harboring luciferase reporter gene xenografted in Balb/c nude mouse at 25 mg/kg/day, ip measured every 10 days by bioluminescence imaging analysis; assay type: functional, organism-based
[8] = Toxicity in Balb/c nude mouse xenografted with PANC1 cells assessed as body weight loss at 25 mg/kg/day, ip; assay type: organism-based; details: in vivo
[9] = Toxicity in Balb/c nude mouse xenografted with PANC1 cells assessed as pathological changes in heart at 25 mg/kg/day, ip by H and E staining-based microscopic analysis; assay type: organism-based; details: in vivo
PANC-1 [10] = assay: Antimetastatic activity against human PANC1 cells harboring luciferase reporter gene xenografted in Balb/c nude mouse assessed as mouse survival at 25 mg/kg/day, ip (reference value: 25%); assay type: functional; details: PANC-1, ip
[11] = Toxicity in Balb/c nude mouse xenografted with PANC1 cells assessed as pathological changes in lung at 25 mg/kg/day, ip by H and E staining-based microscopic analysis; assay type: organism-based; details: in vivo
Myoferlin [12] = target: T1, Myoferlin; assay: Binding affinity to recombinant human GST-tagged MYOF C2 domain (3445 to 3912 residues) expressed in Escherichia coli BL21 (DE3) at 0.3125 to 10 uM by surface plasmon resonance analysis
PANC-1 [13] = assay: Antimigratory activity against MYOF-knockout human PANC1 cells measured after 18 hrs in presence of mitomycin C using crystal violet staining by inverted microscopy-based transwell assay; assay type: functional, cell-based

T1 sequence (Q9NZM1 whole entry, the tested form may be a part): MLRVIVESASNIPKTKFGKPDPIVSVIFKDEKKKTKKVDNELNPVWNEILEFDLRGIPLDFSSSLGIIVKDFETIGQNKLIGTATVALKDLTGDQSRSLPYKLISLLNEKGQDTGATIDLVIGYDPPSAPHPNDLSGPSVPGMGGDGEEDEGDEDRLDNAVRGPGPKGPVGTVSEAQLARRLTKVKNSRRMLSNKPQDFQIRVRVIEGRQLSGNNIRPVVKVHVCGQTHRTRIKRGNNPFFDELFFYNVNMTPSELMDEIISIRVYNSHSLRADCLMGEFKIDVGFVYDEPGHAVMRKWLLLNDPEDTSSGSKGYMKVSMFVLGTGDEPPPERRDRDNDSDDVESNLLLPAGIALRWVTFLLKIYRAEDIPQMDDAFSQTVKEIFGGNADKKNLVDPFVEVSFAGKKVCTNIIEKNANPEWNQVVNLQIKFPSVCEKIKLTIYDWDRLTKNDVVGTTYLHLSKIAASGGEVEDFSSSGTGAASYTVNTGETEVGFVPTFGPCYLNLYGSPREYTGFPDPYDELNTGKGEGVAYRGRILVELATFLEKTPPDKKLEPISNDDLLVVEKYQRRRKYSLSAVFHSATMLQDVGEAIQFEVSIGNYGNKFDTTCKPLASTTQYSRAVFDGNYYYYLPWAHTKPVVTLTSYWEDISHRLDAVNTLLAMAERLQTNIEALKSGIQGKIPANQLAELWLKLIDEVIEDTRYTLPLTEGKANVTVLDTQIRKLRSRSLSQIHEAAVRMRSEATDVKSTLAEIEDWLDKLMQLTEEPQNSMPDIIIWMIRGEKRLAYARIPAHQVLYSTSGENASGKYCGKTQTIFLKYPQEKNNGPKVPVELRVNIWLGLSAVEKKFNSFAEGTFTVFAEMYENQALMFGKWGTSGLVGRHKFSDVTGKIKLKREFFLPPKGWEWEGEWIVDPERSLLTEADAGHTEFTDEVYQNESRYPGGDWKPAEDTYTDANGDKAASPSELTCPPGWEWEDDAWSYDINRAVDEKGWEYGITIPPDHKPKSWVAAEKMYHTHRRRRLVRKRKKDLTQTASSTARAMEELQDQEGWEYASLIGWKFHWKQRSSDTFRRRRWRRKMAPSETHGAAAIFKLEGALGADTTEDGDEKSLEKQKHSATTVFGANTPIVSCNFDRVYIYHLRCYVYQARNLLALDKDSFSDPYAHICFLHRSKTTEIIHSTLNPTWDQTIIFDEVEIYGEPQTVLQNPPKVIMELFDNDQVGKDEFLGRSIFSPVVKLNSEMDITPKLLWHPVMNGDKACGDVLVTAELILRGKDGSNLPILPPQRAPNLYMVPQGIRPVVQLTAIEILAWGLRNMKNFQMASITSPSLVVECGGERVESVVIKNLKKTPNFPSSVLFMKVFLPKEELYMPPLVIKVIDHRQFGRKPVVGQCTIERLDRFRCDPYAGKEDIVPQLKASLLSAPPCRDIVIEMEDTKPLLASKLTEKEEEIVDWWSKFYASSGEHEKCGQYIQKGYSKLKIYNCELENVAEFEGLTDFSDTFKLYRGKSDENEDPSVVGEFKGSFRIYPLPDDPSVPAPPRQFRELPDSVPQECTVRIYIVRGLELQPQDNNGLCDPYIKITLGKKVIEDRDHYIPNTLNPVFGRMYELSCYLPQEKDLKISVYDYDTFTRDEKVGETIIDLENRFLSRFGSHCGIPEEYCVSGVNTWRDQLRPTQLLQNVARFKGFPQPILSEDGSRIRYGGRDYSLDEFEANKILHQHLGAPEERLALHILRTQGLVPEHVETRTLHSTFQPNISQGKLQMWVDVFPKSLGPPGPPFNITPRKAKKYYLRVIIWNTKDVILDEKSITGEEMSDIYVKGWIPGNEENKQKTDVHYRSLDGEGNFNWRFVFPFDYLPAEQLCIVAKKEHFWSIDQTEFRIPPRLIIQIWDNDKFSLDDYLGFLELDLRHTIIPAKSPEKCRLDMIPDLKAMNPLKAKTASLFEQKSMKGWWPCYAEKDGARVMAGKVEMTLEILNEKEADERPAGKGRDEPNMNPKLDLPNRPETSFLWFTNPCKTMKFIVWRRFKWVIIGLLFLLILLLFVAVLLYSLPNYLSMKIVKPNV

pIC50 (PANC-1 [1])	SMILES	also measured
< 4.70	COc1ccc(-c2nc(C)nn2-c2cccc(C(=O)NCCCCCc3ccccc3)c2)cc1	
5.52	COc1ccc(-c2nc(C)nn2-c2cccc(C(=O)NCCCCc3ccc(Br)cc3)c2)cc1	
5.03	COc1ccc(-c2nc(C)nn2-c2cccc(C(=O)NCCOCc3ccccc3)c2)cc1	
6.19	CCc1nc(-c2ccc(OC(F)(F)F)cc2)n(-c2cccc(C(=O)NCCCCc3ccccc3)c2)n1	
< 4.70	COc1ccc(-c2nc(C(C)C)nn2-c2cccc(C(=O)NCCCCc3ccccc3)c2)cc1	
6.85	CCc1nc(-c2ccc(OC)cc2)n(-c2cccc(C(=O)NCCCCc3ccccc3)c2)n1	pIC50 (PANC-1 [2]): 6.74; Activity (Myoferlin [3]): Active
5.77	COc1ccc(-n2nc(C)nc2-c2cccc(C(=O)NCCCCc3ccccc3)c2)cc1	
6.51	CCc1nc(-c2cnc(OC)cn2)n(-c2cccc(C(=O)NCCCCc3ccccc3)c2)n1	
< 4.70	COc1ccc(-c2nc(C)nn2-c2cccc(C(=O)NCCc3ccncc3)c2)cc1	
5.51	COc1ccc(-c2nc(C)nn2-c2cccc(C(=O)NCCCOc3ccccc3)c2)cc1	pIC50 (PANC-1 [2]): 5.45
5.87	CCc1nc(-c2cncc(C(=O)NCCCCc3ccccc3)c2)n(-c2ccc(OC)cc2)n1	
6.38	CCc1nc(-c2cccc(C(=O)NCCCCc3ccccc3)c2)n(-c2ccc(OC)cc2)n1	
6.66	CCc1nc(-c2ccc(O)cc2)n(-c2cccc(C(=O)NCCCCc3ccccc3)c2)n1	
6.09	CCc1nc(-c2ccc(OC)nc2)n(-c2cccc(C(=O)NCCCCc3ccccc3)c2)n1	
< 4.70	COc1ccc(-c2ncnn2-c2cccc(C(=O)NCCCCc3ccccc3)c2)cc1	
6.92	CCc1nc(-c2ccc(OC)cn2)n(-c2cccc(C(=O)NCCCCc3ccccc3)c2)n1	pIC50 (PANC-1 [2]): 6.82
5.49	COc1ccc(-c2nc(C)nn2-c2cccc(C(=O)NCCc3ccc(Br)cc3)c2)cc1	pIC50 (PANC-1 [2]): 5.53

pIC50 (PANC-1 [1])	SMILES	also measured
< 4.70	COc1ccc(-c2nc(C)nn2-c2cccc(C(=O)NCCCc3ccc(Br)cc3)c2)cc1	
5.79	CCc1nc(-c2ccc(OC)cc2)n(-c2cncc(C(=O)NCCCCc3ccccc3)c2)n1	
4.77	CCCCc1nc(-c2ccc(OC)cc2)n(-c2cccc(C(=O)NCCCCc3ccccc3)c2)n1	
5.11	COc1ccc(-c2nc(C3CC3)nn2-c2cccc(C(=O)NCCCCc3ccccc3)c2)cc1	
5.02	CCc1nc(-c2cccc(C(=O)NCCCCc3ccccc3)n2)n(-c2ccc(OC)cc2)n1	
6.20	COc1ccc(-c2nc(C)nn2-c2cccc(C(=O)NCCCCc3ccccc3)c2)cc1	Activity (Myoferlin [12]): Active
6.08	CCc1nc(-c2ccc(OC(F)F)cc2)n(-c2cccc(C(=O)NCCCCc3ccccc3)c2)n1	
< 4.70	COc1ccc(-c2nc(C)nn2-c2cccc(C(=O)NCCc3ccccn3)c2)cc1	
< 4.70	COc1ccc(-c2nc(C)nn2-c2cccc(C(=O)NCCc3cccs3)c2)cc1	
< 4.70	COc1ccccc1-c1nc(C)nn1-c1cccc(C(=O)NCCc2ccc(Cl)cc2)c1	pIC50 (PANC-1 [2]): 4.56
5.36	COc1ccc(-c2nc(C)nn2-c2cccc(C(=O)NCCc3ccc(Cl)cc3)c2)cc1	pIC50 (PANC-1 [2]): 5.01
	CC(=O)O[C@@]12CO[C@@H]1C[C@H](O)[C@@]1(C)C(=O)[C@H](O)C3=C(C)[C@@H](OC(=O)[C@H](O)[C@@H](NC(=O)OC(C)(C)C)c4ccccc4)C[C@@](O)([C@@H](OC(=O)c4ccccc4)[C@H]21)C3(C)C	Activity (PANC-1 [13]): Active
< 4.70	COc1ccc(-c2nc(C)nn2-c2cccc(C(=O)NCCCc3ccc(Cl)cc3)c2)cc1	
6.41	COc1ccccc1N1C(=O)CSC1c1cccc(C(=O)NCCc2ccc(Br)cc2)c1 (stereo not drawn)	pIC50 (PANC-1 [2]): 6.27
4.77	CCOc1ccc(-c2nc(CC)nn2-c2cccc(C(=O)NCCCCc3ccccc3)c2)cc1	
5.10	COc1ccccc1-c1nc(C)nn1-c1cccc(C(=O)NCCc2ccc(Br)cc2)c1	pIC50 (PANC-1 [2]): 4.96

SMILES	pIC50 (PANC-1 [1])	also measured
Nc1ccn([C@@H]2O[C@H](CO)[C@@H](O)C2(F)F)c(=O)n1 [GEMCITABINE]	6.80	Activity [4]: Non-Toxic; Activity [5]: Non-Toxic; Activity [6]: Non-Toxic; Activity (PANC-1 [7]): Active; pIC50 (PANC-1 [2]): 6.80; Activity [8]: Non-Toxic; Activity [9]: Non-Toxic; survival at 25 mg/kg/day (PANC-1 [10]): 60%; Activity [11]: Non-Toxic
